Patent US20220146526A1, “METHOD FOR EVALUATING SAMPLE, ANALYSIS METHOD, METHOD FOR DETECTING DEGRADED SAMPLE, MARKER FOR DETECTING DEGRADED BLOOD PLASMA SAMPLE, AND MARKER FOR DETECTING DEGRADED SERUM SAMPLE” (SHIMADZU CORPORATION, priority 2019, published 2022)
Several values for one entry are separate records, joined by “and”; a condition that tells them apart may be missing. Identical values can stand only once. Blank lines part the entries; values can stand above or below the compound they belong to.

Legend:
Type in all cases: physicochemical, human
[1] = GC/MS of serum sample: number of times of freezing and thawing (Table I); set-up: key to Rate of increase or decrease / Rate of increase or decrease (first value, increase): detection intensity relative to 2 freeze-thaw cycles = 1; settings: for Rate of increase or decrease: detection intensity relative to 1 at 2 times; for Number of times when compound is affected: detection intensity changed by 30% or more vs 2 times of freezing and thawing
Method: (§1) After standing, the blood sample was subjected to centrifugation under a condition of room temperature, 3500 rpm, and 5 minutes. […] After centrifugation, the blood-collecting vessel was left to stand at room temperature, and the serum was isolated during this time. Here, in order to investigate how the detection intensity of molecules contained in the sample was affected in cases where the time during which the blood-collecting vessel was left at room temperature was set to 1 hour and 6 hours as compared to that in a case where the time was set to 30 minutes, preparations were performed under the respective conditions of 30 minutes, 1 hour, and 6 hours. The obtained serum sample was frozen and stored. Here, in order to investigate how the detection intensity of molecules contained in the sample was affected in cases where freezing and thawing was performed 4 times, 6 times, and 10 times after freezing as compared to that in a case where freezing and thawing was performed 2 times after freezing, freezing and thawing was performed under the respective conditions of 2, 4, 6, and 10 times.
(§2) Frozen blood plasma samples and serum samples were subjected to GC/MS or LC/MS. In GC/MS, the blood plasma samples and serum samples were subjected to methoxymation and trimethylsilylation and then introduced to GC-MS.
(§3) GC/MS was conducted using GCMS·TQ8040 (Shimadzu Corporation) that was a GC·MS equipped with AOC·20i (Shimadzu Corporation) as an autosampler.
(§4) Column: BPX5 (inner diameter of 0.25 mm, length of 30 m, and film thickness of 0.25 μm) (SGE)
(§5) Column temperature: maintained at 60° C. for 2 minutes, then raised at 15° C./min, and maintained at 330° C. for 3 minutes.
(§6) Inlet temperature: 250° C.
(§7) Carrier gas control mode: constant linear velocity of 39.0 cm/sec
(§8) Sample introduction method: split (split ratio of 30:1) Injection volume: 1 μL
(§9) Ionization method: electron ionization
(§10) Ionization current: 60 μA
(§11) Interface temperature: 280° C.
(§12) Ion source temperature: 200° C.
(§13) Mode: multiple reaction monitoring (MRM)
The rate of increase or decrease in Table I is the value of detection intensity relative to 1 that is the detection intensity in a case where the number of times of freezing and thawing is set to 2 times.

[2] = GC/MS of blood plasma sample: time from blood collection to centrifugation (Table A); settings: for Rate of increase or decrease: detection intensity relative to 1 at 15 minutes, after 12 hours; for Rate of increase or decrease / Increase or decrease: blood collection to centrifugation; for Increase or decrease: detection intensity
Method: (§14) At room temperature, 5 mL of blood from a healthy subject was taken into a blood-collecting vessel containing EDTA, and the blood-collecting vessel was inverted for mixing, then cooled, and allowed to stand at 4° C. Here, in order to investigate how the detection intensity of molecules contained in the sample was affected in a case where the time to cooling was set to 5 minutes or more as compared to that in a case where the time to cooling was set to 1 minute or less, preparations were performed under both the former condition and the latter condition. After standing, the blood sample was subjected to centrifugation under a condition of 4° C., 3000 rpm, and 15 minutes. […] After centrifugation, the blood-collecting vessel was left to stand at room temperature for 30 minutes, and the blood plasma was isolated during this 30 minutes. The obtained blood plasma sample was frozen and stored. Here, in order to investigate how the detection intensity of molecules contained in the sample was affected in cases where freezing and thawing was performed 4 times, 6 times, and 10 times after freezing as compared to that in a case where freezing and thawing was performed 2 times after freezing, freezing and thawing was performed under the respective conditions of 2, 4, 6, and 10 times.
as §2, §3, §4, §5, §6, §7, §8, §9, §10, §11, §12, §13
The rate of increase or decrease in Table A is the value of detection intensity relative to 1 that is the detection intensity in a case where the time from blood collection to centrifugation is set to 15 minutes.

[3] = GC/MS of blood plasma sample: number of times of freezing and thawing (Table C); settings: for Rate of increase or decrease: detection intensity relative to 1 at 2 times; for Increase or decrease: detection intensity
Method: as §14, §2, §3, §4, §5, §6, §7, §8, §9, §10, §11, §12, §13
The rate of increase or decrease in Table C is the value of detection intensity relative to 1 that is the detection intensity in a case where the number of times of freezing and thawing is set to 2 times.

[4] = GC/MS of serum sample: time from blood collection to centrifugation (Table G); settings: blood collection to centrifugation; for Rate of increase or decrease: detection intensity relative to 1 at 15 minutes; for Increase or decrease: detection intensity
Method: as §1, §2, §3, §4, §5, §6, §7, §8, §9, §10, §11, §12, §13
The rate of increase or decrease in Table G is the value of detection intensity relative to 1 that is the detection intensity in a case where the time from blood collection to centrifugation is set to 15 minutes.

[5] = GC/MS of serum sample: time from centrifugation to isolation (Table H); set-up: key to Rate of increase or decrease / Rate of increase or decrease (first value, increase): detection intensity relative to 1 at 30 min centrifugation-to-isolation; settings: for Rate of increase or decrease: detection intensity relative to 1 at 30 minutes, after 1 hour; for Increase or decrease: detection intensity, after 1 hour vs 30 minutes
Method: as §1, §2, §3, §4, §5, §6, §7, §8, §9, §10, §11, §12, §13
The rate of increase or decrease in Table H is the value of detection intensity relative to 1 that is the detection intensity in a case where the time from centrifugation to isolation is set to 30 minutes.

[6] = serum sample, GC/MS, detection intensity vs 2 times of freezing and thawing
[7] = freezing and thawing 4 times vs 2 times
[8] = 10 times of freezing and thawing

Rate of increase or decrease ([1]; serum, GC/MS, freezing and thawing 10 times): 1.47 | Increase or decrease ([1]; detection intensity, serum, GC/MS, freezing and thawing 10 times vs 2 times): Increase | Rate of increase or decrease [2]: 1.44 | Increase or decrease ([2]; after 12 hours vs 15 minutes): Increase
SMILES: CC(CN)C(=O)O (centres unmarked) [3-Aminoisobutyric acid]

Number of times when compound is affected ([1]; serum sample, GC/MS): 10 times | Increase or decrease [1, 6]: Increase | Rate of increase or decrease ([3]; freezing and thawing 4 times): 1.58 | Increase or decrease [3, 7]: Increase
SMILES: CCCCCC(=O)O [Cabroic acid]

Rate of increase or decrease [2]: 4.05 | Increase or decrease ([2]; after 12 hours vs 15 minutes): Increase
SMILES: CCCCCCCCCCCCCCCC(=O)O [Palmitic acid]

Rate of increase or decrease [2]: 1.38 | Increase or decrease ([2]; after 12 hours vs 15 minutes): Increase
SMILES: CC(C)CCC[C@@H](C)[C@H]1CC[C@H]2[C@@H]3CC=C4C[C@@H](O)CC[C@]4(C)[C@H]3CC[C@]12C [Cholesterol]

Rate of increase or decrease [2]: 1.34 | Increase or decrease ([2]; after 12 hours vs 15 minutes): Increase
SMILES: CCCCC/C=C\C/C=C\CCCCCCCC(=O)O [Linoleic acid]

SMILES: O=C(CO)[C@H](O)[C@@H](O)[C@H](O)CO [Sorbose]
Rate of increase or decrease [1, 8]: 0.68 | Number of times when compound is affected ([1]; serum sample, GC/MS): 10 times | Increase or decrease [1, 6]: Decrease | Rate of increase or decrease ([4]; after 4 hours): 1.53 | Increase or decrease ([4]; after 4 hours vs 15 minutes): Increase | Increase or decrease ([2]; after 4 hours vs 15 minutes): Different from individual | Rate of increase or decrease (second value, decrease) ([2]; different from individual to individual, individuals with decrease, relative to 1 at 15 minutes, collection to centrifugation, after 4 hours): 0.67 | Rate of increase or decrease (first value, increase) ([2]; different from individual to individual, individuals with increase, relative to 1 at 15 minutes, collection to centrifugation, after 4 hours): 2.10

Rate of increase or decrease [5]: 1.87 | Increase or decrease [5]: Increase | Rate of increase or decrease ([4]; after 8 hours): 0.60 and 0.64 | Increase or decrease ([4]; after 8 hours vs 15 minutes): Decrease | Rate of increase or decrease ([3]; freezing and thawing 4 times): 1.44 | Increase or decrease [3, 7]: Increase
SMILES: O=C[C@H](O)[C@@H](O)[C@@H](O)[C@H](O)C(=O)O [Galacturonic acid]

Rate of increase or decrease [5]: 0.64 | Increase or decrease [5]: Decrease | Rate of increase or decrease [2]: 1.33 | Increase or decrease ([2]; after 12 hours vs 15 minutes): Increase
SMILES: O=C(O)C(O)Cc1ccc(O)cc1 (centres unmarked) [4-Hydroxyphenyllactic acid]

Rate of increase or decrease [1, 8]: 1.33 | Number of times when compound is affected ([1]; serum sample, GC/MS): 10 times | Increase or decrease [1, 6]: Increase | Rate of increase or decrease [2]: 2.13 | Increase or decrease ([2]; after 12 hours vs 15 minutes): Increase
SMILES: CCCCCCCCCCCCCCCCCC(=O)O [Stearic acid]

Rate of increase or decrease ([4]; after 8 hours): 0.66 | Increase or decrease ([4]; after 8 hours vs 15 minutes): Decrease | Rate of increase or decrease ([3]; freezing and thawing 6 times): 0.68 | Increase or decrease ([3]; freezing and thawing 6 times vs 2 times): Decrease
SMILES: O[C@H]1[C@H](O)[C@@H](O)[C@H](O)[C@@H](O)[C@@H]1O [Scyllo-inositol]
